# Measured values taken from patent publication US9926318B2, “Tetracyclic autotaxin inhibitors” (PharmAkea, Inc., priority 2013, dated 2018).
# Target: human autotaxin (ATX) (Homo sapiens (Human), UniProt Q13822)
# Assay: Human autotaxin assay (choline release from LPC, Hep3B conditioned media)
# Format: biochemical
# Conditions: concentrated conditioned media from Hep3B cells, LPC substrate
# Method: ATX activity is assayed in concentrated conditioned media from Hep3B human hepatocellular carcinoma cells by measuring the amount of choline released from the substrate, lysophosphatidylcholine (LPC) as it is cleaved to LPA. Conditioned media is collected from confluent Hep3B cells and concentrated 20-fold using Centriprep-30 filter devices (Millipore). […] 100 μl of a color mix containing 4.5 mM 4-aminoantipyrine, 2.7 mM N-ethyl-N-(2-hydroxy-3-sulfopropyl)-m-toluidine, 21 units/ml horseradish peroxidase and 3 units/ml choline oxidase in 50 mM Tris, pH 8, 4.5 mM MgCl2 is added and the incubation continued for 15 minutes at room temperature before reading the absorbance at 555 nm.
row,SMILES,IC50
1,O=C1NC(=S)N2Cc3c(c4cccnc4n3Cc3ccc(F)cc3)CC12 (centres unmarked) [Compound E3],< 500 nM
2,"O=C(O)CCCN1C(=O)C2Cc3c(n(CCCc4ccccc4)c4ccccc34)CN2C1=O (racemic) [Compound 1-7, 4-(1,3-dioxo-6-(3-phenylpropyl)-11,11a-dihydro-1H-imidazo[1′,5′:1,6]pyrido[3,4-b]indol-2(3H,5H,6H)-yl)butanoic acid]",< 500 nM
3,"O=C(O)CCN1C(=O)C2Cc3c(n(Cc4ccc(F)cc4)c4ncccc34)CN2C1=O (single isomer, unassigned; entb) [C114 entB, 3-{8-[(4-fluorophenyl)methyl]-12,14-dioxo-6.8.11.13-tetraazatetracyclo[7.7.0.02, 7.011,15]hexadeca-1(9),2(7),3,5-tetraen-13-yl}propionic acid]",< 500 nM
4,"O=C1NC(=S)N2Cc3c(c4ccccc4n3Cc3ccc(F)cc3)C[C@@H]12 [Compound E2, (S)-6-(4-fluorobenzyl)-3-thioxo-2,3,5,6,11,11a-hexahydro-1H-imidazo[1′,5′:1,6]pyrido[3,4-b]indol-1-one]",< 500 nM
5,"O=C1NC(=O)N2Cc3c(c4ccc(Cl)cc4n3Cc3ccc(F)cc3)C[C@@H]12 [Compound 1-26, (S)-8-chloro-6-(4-fluorobenzyl)-5,6,11,11a-tetrahydro-1H-imidazo[1′,5′:1,6]pyrido[3,4-b]indole-1,3(2H)-dione]",> 1000 nM
6,"CC(C)(CN1C(=O)[C@@H]2Cc3c(n(Cc4ccc(F)cc4)c4ccccc34)CN2C1=O)C(=O)O [Compound 1-30, (S)-3-(6-(4-fluorobenzyl)-1,3-dioxo-5,6,11,11a-tetrahydro-1H-imidazo[1′,5′:1,6]pyrido[3,4-b]indol-2(3H)-yl)-2,2-dimethylpropanoic acid]",< 500 nM
7,"CC1(C)c2c(n(Cc3ccc(F)cc3)c3ccccc23)CN2C(=O)N(CCC(=O)O)C(=O)C21 (centres unmarked) [Compound A11, 3-(6-(4-fluorobenzyl)-11,11-dimethyl-1,3-dioxo-5,6,11,11a-tetrahydro-1H-imidazo[1′,5′:1,6]pyrido[3,4-b]indol-2(3H)-yl)propanoic acid]",< 500 nM
8,"CC1(C)c2c(n(Cc3ccc(F)cc3)c3ccccc23)CN2C(=O)NC(=O)C21 (racemic) [Compound A110, 6-(4-fluorobenzyl)-11,11-dimethyl-5,6,11,11a-tetrahydro-1H-imidazo[1′,5′:1,6]pyrido[3,4-b]indole-1,3(2H)-dione]",< 500 nM
9,"O=C(O)CCN1C(=O)[C@@H]2Cc3c(n(Cc4ccc(Cl)nc4)c4ccccc34)CN2C1=O [Compound 1-84, (S)-3-(6-((6-chloropyridin-3-yl)methyl)-1,3-dioxo-5,6,11,11a-tetrahydro-1H-imidazo[1′,5′:1,6]pyrido[3,4-b]indol-2(3H)-yl)propanoic acid]",< 500 nM
10,"O=C(O)CCN1C(=O)[C@@H]2Cc3c(n(Cc4ccc(F)nc4)c4ccccc34)CN2C1=O [Compound 1-135, (S)-3-(6-((6-fluoropyridin-3-yl)methyl)-1,3-dioxo-11,11a-dihydro-1H-imidazo[1′,5′:1,6]pyrido[3,4-b]indol-2(3H,5H,6H)-yl)propanoic acid]",< 500 nM
11,"O=C(O)CCN1C(=O)[C@@H]2Cc3c(n(Cc4ccc(Cl)cc4F)c4ccccc34)CN2C1=O [Compound 1-133, (S)-3-(6-(4-chloro-2-fluorobenzyl)-1,3-dioxo-11,11a-dihydro-1H-imidazo[1′,5′:1,6]pyrido[3,4-b]indol-2(3H,5H,6H)-yl)propanoic acid]",< 500 nM
12,"O=C(O)CCCN1C(=O)[C@@H]2Cc3c(n(Cc4ccc(F)cc4)c4cc(Cl)ccc34)CN2C1=O [Compound 1-27, (S)-4-(8-chloro-6-(4-fluorobenzyl)-1,3-dioxo-5,6,11,11a-tetrahydro-1H-imidazo[1′,5′:1,6]pyrido[3,4-b]indol-2(3H)-yl)butanoic acid]",> 1000 nM

# Next, values leading:
row,IC50,SMILES
1,> 1000 nM,"CC12Cc3c(n(Cc4ccc(F)cc4)c4ccccc34)CN1C(=O)N(CCC(=O)O)C2=O (centres unmarked) [Compound A113, 3-(6-(4-fluorobenzyl)-11a-methyl-1,3-dioxo-11,11a-dihydro-1H-imidazo[1′,5′:1,6]pyrido[3,4-b]indol-2(3H,5H,6H)-yl)propanoic acid]"
2,< 500 nM,"O=C(O)CN1CC(=O)N2Cc3c(c4ccccc4n3Cc3ccc(F)cc3)CC2C1=O (racemic) [Compound 1-23, 2-(7-(4-fluorobenzyl)-1,4-dioxo-3,4,6,7,12,12a-hexahydropyrazino[1′,2′:1,6]pyrido[3,4-b]indol-2(1H)-yl)acetic acid]"
3,> 1000 nM,"O=C(O)CCN1C(=O)N2Cc3c(c4ccccc4n3Cc3ccc(F)cc3)C[C@H]2C1=S [Compound 1-141, (S)-3(6-(4-fluorobenzyl)-3-oxo-1-thioxo-5,6,11,11a-tetrahydro-1H-imidazo[1′,5′:1,6]pyrido[3,4-b]indol-2(3H)-yl)propanoic acid]"
4,< 500 nM,"O=C(O)CN1C(=O)C2Cc3c(n(Cc4ccc(F)cc4)c4ccccc34)CN2C1=O (centres unmarked) [Compound 1-19, 2-(6-(4-fluorobenzyl)-1,3-dioxo-5,6,11,11a-tetrahydro-1H-imidazo[1′,5′:1,6]pyrido[3,4-b]indol-2(3H)-yl)acetic acid]"
5,< 500 nM,"O=C(O)CCN1CC2Cc3c(n(Cc4ccc(F)cc4)c4ccccc34)CN2C1=O (centres unmarked) [Compound 1-21, 3-(6-(4-fluorobenzyl)-3-oxo-11,11a-dihydro-1H-imidazo[1′,5′:1,6]pyrido[3,4-b]indol-2(3H,5H,6H)-yl)propanoic acid]"
6,< 500 nM,"N#CCN1C(=O)C2Cc3c(n(Cc4ccc(F)cc4)c4ccccc34)CN2C1=O (racemic) [Compound 1-139, 2-(6-(4-fluorobenzyl)-1,3-dioxo-5,6,11,11a-tetrahydro-1H-imidazo[1′,5′:1,6]pyrido[3,4-b]indol-2(3H)-yl)acetonitrile]"
7,500 to 1000 nM,"O=C(O)CN1CC2Cc3c(n(Cc4ccc(F)cc4)c4ccccc34)CN2C1=O (racemic) [Compound 1-20, 2-(6-(4-fluorobenzyl)-3-oxo-11,11a-dihydro-1H-imidazo[1′,5′:1,6]pyrido[3,4-b]indol-2(3H,5H,6H)-yl)acetic acid]"
8,< 500 nM,"O=C1NC(=O)N2Cc3c(c4ccccc4n3Cc3ccc(F)cc3)C[C@@H]12 [Compound 1-130, (S)-6-(4-fluorobenzyl)-5,6,11,11a-tetrahydro-1H-imidazo[1′,5′:1,6]pyrido[3,4-b]indole-1,3(2H)-dione]"
9,< 500 nM,"O=C(O)CCCN1C(=O)[C@@H]2Cc3c(n(Cc4ccc(F)cc4)c4ccccc34)CN2C1=O [Compound 1-2, (S)-4-(6-(4-fluorobenzyl)-1,3-dioxo-11,11a-dihydro-1H-imidazo[1′,5′:1,6]pyrido[3,4-b]indol-2(3H,5H,6H)-yl)butanoic acid]"
10,< 500 nM,"O=C1[C@@H]2Cc3c(n(Cc4ccc(F)cc4)c4ccccc34)CN2C(=O)N1CC1(C(=O)O)CC1 [Compound 1-34, (S)-1-((6-(4-fluorobenzyl)-1,3-dioxo-5,6,11,11a-tetrahydro-1H-imidazo[1′,5′:1,6]pyrido[3,4-b]indol-2(3H)-yl)methyl)cyclopropane-1-carboxylic acid]"
11,< 500 nM,"O=C(O)CCCN1C(=O)[C@H]2Cc3c(n(Cc4ccc(F)cc4)c4ccccc34)CN2C1=O [Compound 1-3, (R)-4-(6-(4-fluorobenzyl)-1,3-dioxo-11,11a-dihydro-1H-imidazo[1′,5′:1,6]pyrido[3,4-b]indol-2(3H,5H,6H)-yl)butanoic acid]"
